What was measured:
[1] = biological target: T1, human NPFFR1 (hNPFFR1) receptor (Homo sapiens, UniProt Q9GZQ6); assay: Human NPFFR1 evaluation using BRET biosensors in HEK-293 T cells; type: cell-based; details: hNPFFR1 in HEK-293 T cells, stimulated by EC80 RFRP-3, read-out: IC50 of antagonist activity
T1 construct: expressed in transfected cells; host or cells: HEK-293 T cells, transient co-transfection
Description: Compounds of the present invention were tested successively for their agonist and antagonist activities on human NPFFR1 (hNPFFR1) receptor transiently over-expressed in HEK-293 T cells. Compounds exert agonist activity if, by themselves in absence of neuropeptide RFRP-3 (also named NPVF) they activate hNPFFR1; and they exert antagonist activity if they decrease the action of RFRP-3 on the receptor. The assay used to measure compound activity is based on BRET (Bioluminescence Resonance Energy Transfer) biosensors and is designed to monitor the plasma membrane translocation of protein that interacts with specific Ga subunit. The specific effector (luciferase tagged: BRET donor) recruited at the membrane will be in close proximity to a plasma membrane anchor (GFP tagged: BRET acceptor) to induce a BRET signal (Ramdan et al, 2006, Chapter 5, Current Protocols in Neuroscience).
HEK-293 T cells are maintained in Dulbecco's Modified Eagle's Medium supplemented with 10% Foetal Calf Serum, 1% Penicillin/Streptomycin at 37° C./5% CO2. Cells are co-transfected using polyethylenimine (25 kDa linear) with four DNA plasmids encoding; hNPFFR1, GαoB, a Gi family specific intracellular effector fused to luciferase (BRET donor), a plasma membrane effector fused to GFP (BRET acceptor). After transfection, cells are cultured for 48 h at 37° C./5% CO2.
Receptor activity is detected by changes in BRET signal.
On the day of the assay, cells are detached using trypsin 0.05%, resuspended in assay buffer (1.8 mM CaCl2, 1 mM MgCl2, 2.7 mM KCl, 137 mM NaCl, 0.4 mM NaH2PO4, 5.5 mM D-Glucose, 11.9 mM NaHCO3, 25 mM Hepes) and seeded in 384 well plate at a density of 20,000 cells per well. Then, plates are equilibrated 3.5 hours at 37° C. before adding compounds.
Compounds and luciferase substrate are added to the cells using an automated device (Freedom Evo®, Tecan) and BRET readings are collected on EnVision (PerkinElmer) with specific filters (410 nm BW 80 nm, 515 nm BW 30 nm).
Agonist and antagonist activities of compounds are consecutively evaluated on the same cell plate. Agonist activity is first measured after 10 minutes incubation with compound alone on the cells. Then, cells are stimulated by an EC80 RFRP-3 concentration and luminescence is recorded for additional 10 minutes. EC80 RFRP-3 concentration is the concentration giving 80% of the maximal RFRP-3 response. Agonist or antagonist activities are evaluated in comparison to basal signals evoked by assay buffer or EC80 RFRP-3 alone, respectively.
For IC50 determination, a dose-response test is performed using 20 concentrations (ranging over 6 logs) of each compound. Dose-response curves are fitted using the sigmoidal dose-response (variable slope) analysis in GraphPad Prism software (GraphPad Software) and IC50 of antagonist activity is calculated. Dose-response experiments are performed in duplicate, in two independent experiments.

hNPFFR1 = biological target: T2, hNPFFR1 (Homo sapiens, UniProt Q9GZQ6); assay: Radioligand binding competition, membranes from CHO cells expressing hNPFFR1; details: 0.015 nM [D-Tyr1[125I], N-MePhe3]-NPFF, 1 hr at 25° C.; for Ki: read-out: NPFF1-R Ki
T2 construct: expressed in transfected cells; membranes
T2 sequence (Q9GZQ6 whole entry): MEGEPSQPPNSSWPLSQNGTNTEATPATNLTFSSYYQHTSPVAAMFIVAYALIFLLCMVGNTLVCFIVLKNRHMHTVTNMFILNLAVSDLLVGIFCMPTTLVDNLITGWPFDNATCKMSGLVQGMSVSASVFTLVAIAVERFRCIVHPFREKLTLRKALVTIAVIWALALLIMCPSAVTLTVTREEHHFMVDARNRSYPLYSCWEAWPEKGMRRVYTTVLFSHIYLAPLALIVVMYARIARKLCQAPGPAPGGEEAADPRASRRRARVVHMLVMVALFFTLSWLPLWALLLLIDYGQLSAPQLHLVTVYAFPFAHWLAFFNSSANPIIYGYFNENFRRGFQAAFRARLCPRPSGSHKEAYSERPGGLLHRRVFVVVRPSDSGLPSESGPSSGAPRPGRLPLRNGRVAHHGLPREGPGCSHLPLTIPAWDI
Description: (§1) Competition experiments with membranes from CHO cells stably expressing hNPFFR1 and hNPFFR2 were performed essentially as described in Elhabazi, K., et al. Neuropharmacology, 2013. 75C, 164-171., Briefly, hNPFFR1 or hNPFFR2 membranes (5 to 10 μg of proteins) were incubated (1 hr at 25° C.; 0.25 mL total volume) with 0.015 nM [D-Tyr1[125I], N-MePhe3]-NPFF (Hartmann Analytic GmbH) in 50 mM HEPES (pH 7.4), 1 mM CaCl2, 1 mM MgCl2 and 0.1% bovine serum albumin. Non-specific binding was determined in the presence of 10 μM RFRP-3. Incubation was terminated by rapid filtration through a 96-well GF/B unifilter apparatus (Perkin Elmer Life and Analytical Sciences, Courtaboeuf, France). Unifilters were washed five times with binding buffer, then dried for 1 h at 65° C. After addition of 40 μL scintillation cocktail (Microscint-O, Perkin Elmer) per well, bound radioactivity was determined on a TopCount scintillation counter (Perkin Elmer).

hNPFFR2 = biological target: T3, hNPFFR2 (Homo sapiens, UniProt Q9Y5X5); assay: Radioligand binding competition, membranes from CHO cells expressing hNPFFR2; details: 0.015 nM [D-Tyr1[125I], N-MePhe3]-NPFF, 1 hr at 25° C.; for Ki: read-out: NPFF2-R Ki
T3 construct: expressed in transfected cells; membranes
T3 sequence (Q9Y5X5 whole entry): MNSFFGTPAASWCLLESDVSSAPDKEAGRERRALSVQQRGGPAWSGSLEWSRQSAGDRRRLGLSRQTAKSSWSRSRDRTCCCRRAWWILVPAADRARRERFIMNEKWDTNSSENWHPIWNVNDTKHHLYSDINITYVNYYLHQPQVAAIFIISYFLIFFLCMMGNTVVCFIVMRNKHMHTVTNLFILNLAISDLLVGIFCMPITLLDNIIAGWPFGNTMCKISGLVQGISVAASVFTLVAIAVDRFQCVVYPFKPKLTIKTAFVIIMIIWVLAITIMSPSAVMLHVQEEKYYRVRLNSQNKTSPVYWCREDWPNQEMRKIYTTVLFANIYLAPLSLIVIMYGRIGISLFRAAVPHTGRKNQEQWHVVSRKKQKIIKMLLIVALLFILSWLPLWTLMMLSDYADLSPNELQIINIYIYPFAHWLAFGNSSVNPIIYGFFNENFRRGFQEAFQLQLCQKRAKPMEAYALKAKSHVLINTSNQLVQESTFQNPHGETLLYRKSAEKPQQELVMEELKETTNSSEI
Description: as §1

T1 sequence (Q9GZQ6 whole entry): as the sequence (Q9GZQ6 whole entry) above

Molecule | IC50 [1] [nM] | Ki (hNPFFR1) [nM] | Ki (hNPFFR2) [nM] | NPFF1-R Ki (nM) (hNPFFR1) | NPFF2-R Ki (nM) (hNPFFR2) | melting point [°C]
Cc1ccccc1-c1c(C)cc(N)nc1N [Compound 8b, 4-methyl-3-(o-tolyl)pyridine-2,6-diamine] | > 1000 | 183 | 4600 |  |  | 
Nc1ccc(-c2ccccc2C(F)(F)F)c(N)n1 [Compound 1f, 3-(2-(trifluoromethyl)phenyl) pyridine-2,6-diamine] | 500 to 1000 | 22.4 | 6700 |  |  | 
Nc1ccc(Cc2ccccc2)c(N)n1 [Compound 10a, 3-benzylpyridine-2,6-diamine] | > 1000 | 76 ± 12 | 2800 |  |  | 
Nc1ccc(-c2cccc(Cl)c2Cl)c(NCc2ccccc2)n1 [Compound 5d, N2-benzyl-3-(2,3-dichlorophenyl)pyridine-2,6-diamine] | > 1000 | 84 | 1900 |  |  | 
Nc1ccc(-c2cc(Cl)cc(Cl)c2)c(N)n1 [Compound 1o, 3-(3,5-dichlorophenyl) pyridine-2,6-diamine] | > 1000 | ~500 | ~5000 |  |  | 
Nc1ccc(-c2cccc(Cl)c2Cl)c(NCCN2CCCCC2)n1 [Compound 5h, 3-(2,3-dichlorophenyl)-N2-(2-(piperidin-1-yl)ethyl)pyridine-2,6-diamine] |  | 1920 | 3200 |  |  | 
5-(2-methoxyphenyl)-6-(trifluoromethoxy)pyridin-2-amine [Compound 6f] |  | > 5000 | > 10000 |  |  | 
Nc1ccc(-c2ccoc2)c(N)n1 [Compound 3b, 3-(furan-3-yl)pyridine-2,6-diamine] |  |  |  | n.s. | n.s. | 
Nc1ccc(-c2cccc(Cl)c2Cl)c(NCCc2ccccc2)n1 [Compound 5f, 3-(2,3-dichlorophenyl)-N2-phenethylpyridine-2,6-diamine] |  | 424 | 800 |  |  | 
Nc1ccc(-c2c(Cl)cccc2Cl)c(N)n1 [Compound 1m, 3-(2,6-dichlorophenyl) pyridine-2,6-diamine] |  | 94 | > 10000 |  |  | 
CCCCNc1nc(N)ccc1-c1cccc(Cl)c1Cl [Compound 5c, N2-butyl-3-(2,3-dichlorophenyl)pyridine-2,6-diamine] |  | 416 | 6900 |  |  | 
Nc1nc(N)c(-c2cccc(Cl)c2Cl)cc1F [Compound 9a, 3-(2,3-dichlorophenyl)-5-fluoropyridine-2,6-diamine] |  | 3240 | 1800 |  |  | 
4′-methyl-[3,4′-bipyridine]-2,6-diamine [Compound 3f] |  | 515 |  |  | ns | 
Nc1ccc(-c2cccc(Cl)c2Cl)c(N2CCCCC2)n1 [Compound 5i, 5-(2,3-dichlorophenyl)-6-(piperidin-1-yl)pyridin-2-amine] |  | 440 | 6300 |  |  | 
CCc1cc(-c2cccc(Cl)c2Cl)c(N)nc1N [Compound 9b, 3-(2,3-dichlorophenyl)-5-ethylpyridine-2,6-diamine] |  | 1090 | 3300 |  |  | 
Nc1ccc(-c2cc3ccccc3o2)c(N)n1 [Compound 3c, 3-(benzofuran-2-yl) pyridine-2,6-diamine] |  | 524 | 34000 |  |  | 
Cc1c(Cl)cccc1-c1ccc(N)nc1N [Compound 1q, 3-(3-chloro-2-methylphenyl) pyridine-2,6-diamine] |  | 112 | 7300 |  |  | 
3-(2-methoxyethoxyphenyl)pyridine-2,6-diamine [Compound 2h] |  | 26 | 35700 |  |  | 

Molecule | IC50 [1] [nM] | Ki (hNPFFR1) [nM] | Ki (hNPFFR2) [nM] | NPFF1-R Ki (nM) (hNPFFR1) | NPFF2-R Ki (nM) (hNPFFR2) | melting point [°C]
3-(2-(piperidin-1-yl)ethoxy)pyridine-2,6-diamine [Compound 2j] |  | 33 | 450 |  |  | 
CS(=O)(=O)c1ccccc1-c1ccc(N)nc1N.Cl [Compound 63, 3-(2-methylsulfonylphenyl)pyridine-2,6-diamine] | > 1000 |  |  |  |  | 55 to 65
COc1ccccc1-c1ccc(N)nc1C [Compound 26, 5-(2-Methoxy-phenyl)-6-methyl-pyridin-2-ylamine] | > 1000 |  |  |  |  | 132 to 140
Nc1ccc(-c2ccco2)c(N)n1 [Compound 3a, 3-(furan-2-yl)pyridine-2,6-diamine] |  | 5080 | 106000 |  |  | 
Nc1ccc(CCc2ccccc2)c(N)n1 [Compound 11a, 3-phenethylpyridine-2,6-diamine] |  | 189 | 5400 |  |  | 
CC(C)Oc1ccc(C(F)(F)F)cc1-c1ccc(N)nc1N [Compound 52, 3-(2-Isopropoxy-5-trifluoromethyl-phenyl)-pyridine-2,6-diamine] | > 1000 |  |  |  |  | 100 to 103
CCc1nc(N)ccc1-c1ccccc1C1CC1.Cl [Compound 30, 5-(2-cyclopropylphenyl)-6-ethyl-pyridin-2-amine] | 100 to 500 |  |  |  |  | 180 to 190
Nc1ccc(-c2cccc3ccccc23)c(N)n1 [Compound 68, 3-(1-naphthyl)pyridine-2,6-diamine] | < 100 |  |  |  |  | 152 to 158
Cl.Nc1ccc(-c2ccccc2OCc2ccccc2)c(N)n1 [Compound 64, 3-(2-benzyloxyphenyl)pyridine-2,6-diamine] | < 100 |  |  |  |  | 50 to 60
Cc1ncccc1-c1ccc(N)nc1N [Compound 84, 3-(2-methyl-3-pyridyl)pyridine-2,6-diamine] | > 1000 |  |  |  |  | 192 to 198
Cc1ccc(-c2ccc(N)nc2N)c2ccccc12.Cl [Compound 71, 3-(4-methyl-1-naphthyl)pyridine-2,6-diamine] | 100 to 500 |  |  |  |  | 127 to 132
COc1nc(N)ccc1-c1cccc(Cl)c1Cl [Compound 7a, 5-(2,3-dichlorophenyl)-6-methoxypyridin-2-amine] |  |  |  | ns | ns | 
CCc1nc(N)ccc1-c1ccccc1OC1CCCC1.Cl [Compound 76, 5-[2-(cyclopentoxy)phenyl]-6-ethyl-pyridin-2-amine] | < 100 |  |  |  |  | 80 to 93
COCCNc1nc(N)ccc1-c1cccc(Cl)c1Cl [Compound 5g, 3-(2,3-dichlorophenyl)-N2-(2-methoxyethyl)pyridine-2,6-diamine] |  | 481 |  |  | ns | 
COc1cc(N)nc(N)c1-c1cccc(Cl)c1Cl [Compound 8a, 3-(2,3-dichlorophenyl)-4-methoxypyridine-2,6-diamine] |  | 4080 | > 50000 |  |  | 
Cc1cc(C(F)(F)F)ccc1-c1ccc(N)nc1N [Compound 57, 3-(2-Methyl-4-trifluoromethyl-phenyl)-pyridine-2,6-diamine] | > 1000 |  |  |  |  | 60 to 65
Cc1cccc(C)c1-c1ccc(N)nc1N [Compound 51, 3-(2,6-Dimethyl-phenyl)-pyridine-2,6-diamine] | 100 to 500 |  |  |  |  | 104 to 108
